According to patent US12083202B2, “Lipophilic cosmetic compositions containing pelargonic acid esters” (Novamont S.p.A., priority 2015, dated 2024):

Key:
[1] = UV filters dispersion: dispersibility of a solid UV filter in ester oils; type: physicochemical; parameters: key to Filters dispersion t0 1% / Filters dispersion t0 10% / Filters dispersion t24 1% / Filters dispersion t24 10%: D=homogeneous dispersion; S=sediment deposit; details: for Filters dispersion t0 1%: 1% TiO2, storage 0 hours at 25° C.; for Filters dispersion t24 1%: 1% TiO2, storage 24 hours at 25° C.; for Filters dispersion t0 10%: 10% TiO2, storage 0 hours at 25° C.; for Filters dispersion t24 10%: 10% TiO2, storage 24 hours at 25° C.; for dispersion of Titania: in words, compared with reference solvents
Experimental: The dispersibility of a solid UV filter in different ester oils was tested using Titania (TiO2, commercially available as Titanio Biossido Anatasio from A.C.E.F.). Various ratios of filter/ester (1% and 10% TiO2) were prepared under stirring at 70° C. for 30 minutes. The dispersions were then observed after a storage period of 0 hours (t0) and 24 hours (t24) at ambient temperature (25° C.) to check for the formation of any sediment deposit. Results for each ester are shown in the table below (D=homogeneous dispersion; S=sediment deposit).

[2] = Pigment dispersion: wet point and flow point; type: physicochemical; details: for Fp (flow point), amount of ester oil needed / Wp (wet point), amount of ester oil needed: grams per 100 g of pigment, Black Iron Oxide CI77499
Description: Black Iron Oxide particles (CI77499, commercially available as YPC335200 from Yipin) were dispersed in each of the ester oils of the present invention and in ester oil commonly used as cosmetic ingredients. Each sample of powder particles was wetted by the dropwise addition of one ester oil and then vigorously blended using a spatula until the wet point and the flow point were reached.
The wet point is defined as the minimum volume of dispersant solution to produce a soft coherent mass; the further minimum addition of dispersant solution to produce flow or falling off of the homogeneous mass from the vertical blade of a horizontally held spatula determines the flow point.
The amounts of dispersant solution (i.e. ester oil) needed to reach the wet point (Wp) and the flow point (Fp) were recorded and reported in the table below, expressed in grams per 100 g of pigment.

CCCCCCCCC(=O)OCC(COC(=O)CCCCCCCC)OC(=O)CCCCCCCC [Glycerol tripelargonate]
Filters dispersion t0 1% [1]: D | Filters dispersion t24 1% [1]: D | Filters dispersion t0 10% [1]: D | Filters dispersion t24 10% [1]: S/D | dispersion of Titania [1]: even better | less solvent required in the final composition ([2]; from the minimum difference between Fp and Wp): about 30% | Fp (flow point), amount of ester oil needed [2]: 100.00 g | Wp (wet point), amount of ester oil needed [2]: 60.00 g | dispersion properties ([2]; in words, compared with commonly used cosmetic ingredients): even better than those of Caprylic/Capric Triglyceride

CC(C)CCCCCCOC(=O)CCCCCC(C)C [Isononyl Isononanoate, reference compound]
Filters dispersion t0 1% [1]: D | Filters dispersion t24 1% [1]: S | Filters dispersion t0 10% [1]: D | Filters dispersion t24 10% [1]: S | Fp (flow point), amount of ester oil needed [2]: 145.00 g | Wp (wet point), amount of ester oil needed [2]: 50.00 g

CCCCCCCCC(=O)OCC(C)(C)COC(=O)CCCCCCCC [Neopentyl glycol dipelargonate]
Filters dispersion t0 1% [1]: D | Filters dispersion t24 1% [1]: S/D | Filters dispersion t0 10% [1]: D | Filters dispersion t24 10% [1]: S/D | Fp (flow point), amount of ester oil needed [2]: 166.00 g | Wp (wet point), amount of ester oil needed [2]: 61.00 g

CCCCCCCCC(=O)OCC(COC(=O)CCCCCCCC)(COC(=O)CCCCCCCC)COC(=O)CCCCCCCC [Pentaerythritol tetrapelargonate]
Filters dispersion t0 1% [1]: D | Filters dispersion t24 1% [1]: D | Filters dispersion t0 10% [1]: D | Filters dispersion t24 10% [1]: D | dispersion of Titania [1]: even better | Fp (flow point), amount of ester oil needed [2]: 132.00 g | Wp (wet point), amount of ester oil needed [2]: 62.00 g
